pIC50: −log10 of the molar value. Results filed as inconclusive are left out.

This is an account of results in PubChem BioAssay AID1117319 (Southern Research Institute, 2015).

This assay addresses Virion infectivity factor (Human immunodeficiency virus type 1 group M subtype B (isolate BH10)) + Virion infectivity factor (Human immunodeficiency virus type 1 group M subtype B (isolate BRU/LAI)) + Virion infectivity factor (Human immunodeficiency virus type 1 group M subtype B (isolate PCV12)) + Virion infectivity factor (Human immunodeficiency virus type 1 group M subtype B (isolate HXB2)) + DNA dC->dU-editing enzyme APOBEC-3G (Homo sapiens) (UniProt P69720+P69721+P69722+P69723+Q9HC16). The experiment in a line: inhibitors of Vif binding to APOBEC3G peptide, primary screen, biochemical, TR-FRET, GST-Vif 1-94, biotin-A3G peptide, dose response retest (AID 1117319).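 Note: Vif residues 1-94 fused to GST binding biotinylated APOBEC3G peptide 110-148.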
In general, pIC50 refers to the IC50 on a negative log10 scale, so that one unit is a factor of ten. As to `Cc1ccc(C)n1-c1ccc(C(=O)O)cc1`, the pIC50 was 5.29. The figure for `O=C(NNC(=O)c1ccccc1F)c1cccc(-n2cccc2)c1` is 5.07; for `O=C1OC(c2ccc(F)cc2)=C/C1=C\c1ccc([N+](=O)[O-])o1` it is 5.06. The figure for `O=C(O)c1cccc2c1NC(C(=O)O)C1CC(Sc3ccccc3[N+](=O)[O-])C(Cl)C21` (stereo unspecified) is 6.30; for `O=C(O)CCc1ccc(S(=O)(=O)Nc2cc(C(F)(F)F)ccc2N2CCCC2)cc1` it is 4.84; for `COc1ccc(OC)c(NC(=O)CCN2CCC(C)CC2)c1` it is 4.59. With `COc1cc(CN2CCNC(=O)C2CC(=O)N(Cc2nccn2C)C(C)C)cc(OC)c1` (stereo unspecified) the figure was 4.55. Take `S=c1[nH]nc(-c2cccnc2)n1/N=C/C=C/c1ccco1`: the pIC50 is 5.40. As for `COc1ccc(C2=NOC(C(=O)NCc3cccs3)C2)cc1OC` (stereo unspecified), the pIC50 was 4.05.

Turning to `O=C(O)c1ccc2c(c1)C1C=CCC1C(c1ccncc1)N2` (stereo unspecified), the pIC50 was 5.41. The figure for `COC(=O)c1ccc(=O)c2nc3/c(=C/O)c(O)cc(=O)c3[nH]c12` is 6.46.

Regarding `Cc1cccc(NC(=O)CSc2nnc(-c3ccco3)c(-c3ccco3)n2)c1C`, the pIC50 was 5.37. With `O=C(O)c1ccc2c(c1)C1C(Cl)C(Sc3ccccc3[N+](=O)[O-])CC1C(c1cccc([N+](=O)[O-])c1)N2` (stereo unspecified) the figure was 4.93; with `Cc1cc(O)c(C(C)C)cc1N=Cc1ccc([N+](=O)[O-])cc1`, 4.72. The figure for `O=[N+]([O-])c1c(Nc2ccccc2O)cc(Cl)c2nonc12` is 5.03; for `Oc1c(CN2CCOCC2)cc(CN2CCOCC2)c(O)c1O` it is 5.04; for `NS(=O)(=O)c1ccc(N=Nc2c[nH]c(=O)c(O)c2)cc1` it is 5.39. As for `CN1CCc2cccc3c2[C@H]1Cc1ccc(O)c(O)c1-3`, the pIC50 was 6.05. With `c1cncc(-c2nnc3sc(-c4ccco4)nn23)c1` the figure was 4.55. The figure for `Cc1ccc(/C=C2\SC(=S)N(c3cccnc3)C2=O)o1` is 5.16. Turning to `CNCc1ccccc1Sc1cc(O)ccc1O`, the negative-log IC50 (pIC50) was 5.46.

For the molecule `COCCn1nnnc1C(c1cc2cc(OC)c(OC)cc2[nH]c1=O)N1CCN(c2ccc(O)cc2)CC1` (stereo unspecified), the pIC50 is 5.32.

With `N#Cc1c(-c2ccco2)c2c([nH]c1=S)CCCC2`, the pIC50 is 4.92. As to `CCCn1c(CNc2ccccc2O)nc2ccccc21`, the pIC50 is 4.28.

As for `COc1cccc(=O)c2c(C)n(-c3ccc(C(=O)O)cc3)c(C)c12`, the pIC50 was 5.49. The figure for `CCOC(=O)C(C)N1C(=O)S/C(=C\c2ccc(-c3ccccc3C(=O)O)o2)C1=O` (stereo unspecified) is 4.97; for `CCOC(=O)C1=C(C)NC(C)=C(C(=O)OCC)C1c1cn(-c2ccccc2)nc1-c1ccco1` it is 4.51. With `O=C(O)CC(C(=O)O)N1C(=O)/C(=C/c2ccc(-c3nc4ccccc4s3)o2)SC1=S` (stereo unspecified) the figure was 5.20; with `CCC(=O)NNc1ncnc2ccccc12`, 4.78; with `Cc1c2ccccc2nc2c(F)c(N(C)C)c(F)c(F)c12`, 4.81.

Turning to `CCSC1=C(C#N)C(c2cccs2)C(C(=O)OC)=C(C)N1` (stereo unspecified), the pIC50 was 4.12. Turning to `O=[n+]1c2c(n([O-])c3cc(Br)ccc31)CCC2`, the pIC50 is 4.71. The figure for `N#CC1=C(N)C2=C(N3CCCCC3)CCCC2C1(C#N)C#N` (stereo unspecified) is 5.77; for `CC1(C)Cc2nc3sc(C(=O)O)c(N)c3cc2CS1` it is 4.74.

Turning to `NC(=O)/C(=C/c1ccco1)C(N)=S`, the pIC50 was 5.03. Turning to `CCOc1ccc(NC(=O)CCS(=O)(=O)c2ccc(Br)cc2)cc1`, the pIC50 is 4.85. On to `N=C1C=CC(=C(c2ccc(N)cc2)c2ccc(N)cc2)C=C1`, for which the pIC50 is 5.46. With `CNC[C@H](O)c1ccc(O)c(O)c1` the figure was 5.94; with `COc1cccc(C(C#N)N2CCCCC2)c1O` (stereo unspecified), 4.10; with `CC1=NN(c2cccc(C(=O)O)c2)C(=O)/C1=C\C=C\c1ccco1`, 5.54. The figure for `O=C(O)CCc1ccc(-c2cccs2)n1-c1ccc(C(=O)O)cc1` is 4.09; for `COc1ccc(OC)c(S(=O)(=O)Nc2ccc(O)c3ccccc23)c1` it is 5.06. With `COc1cc(NCCCCCCN)c2ncccc2c1OC` the figure was 5.45. `C=CCn1c(C)c(C(C)=O)c(N2CCN(c3ccccc3)CC2)nc1=S`: the pIC50 is 5.08. As to `CCOC(=O)CSc1nc2c(sc(=S)n2-c2ccccc2OC)c(=O)n1Cc1ccco1`, the pIC50 was 4.56. With `COc1ccc(N2C3=C(CC4=C2CCCC4=O)C(=O)CCC3)cc1` the figure was 4.58. The figure for `Cc1c(NC(=O)c2cc(-c3cccs3)on2)c(=O)n(-c2ccccc2)n1C` is 4.40. Regarding `O=C1NC(=S)NC1=Cc1ccco1`, the pIC50 is 4.95. In the case of `CCCn1nc(C(=O)Nc2cc(C(=O)OC)ccc2C)c2ccccc2c1=O`, the pIC50 was 4.06.

Regarding `COc1ccc(Oc2nc(C)cc(C)c2C#N)cc1`, the pIC50 was 4.23. On to `N#Cc1ccccc1CN1C(=O)S/C(=C/c2cccn2-c2cccc(C(=O)O)c2)C1=O`, for which the pIC50 was 4.73.

Take `CC(C)c1ccc(N2C(=O)NC(=O)/C(=C\C=C\c3ccco3)C2=O)cc1`: the pIC50 was 5.03. With `O=C(O)C1OC(Oc2c(-c3ccc(O)c(O)c3)oc3cc(O)cc(O)c3c2=O)C(O)C(O)C1O` (stereo unspecified) the figure was 5.57; with `COC(=O)Cc1cc(=O)n(-c2nc3ccccc3[nH]2)[nH]1`, 4.66; with `Oc1cc2c(cc1O)[C@@H](c1ccccc1)CNCC2`, 4.32. Turning to `COc1cc(NC(=O)c2cc3nc(C)cc(C)n3n2)c(OC)cc1Cl`, the pIC50 was 4.04. With `CCOC(=O)C1CCCC12Nc1cccc3cccc(c13)N2` (stereo unspecified) the figure was 5.43; with `O=C1/C(=C/c2ccco2)SC(=S)N1c1cccnc1`, 5.83. The figure for `COc1ccc(NC2CS(=O)(=O)CC2NCc2ccco2)cc1` (stereo unspecified) is 4.20. The figure for `Oc1ccc(C[C@H]2NCCc3cc(O)c(O)cc32)cc1O` is 5.01.

For the molecule `Cc1ccc(-c2c3c([nH]c(=S)c2C#N)CCCC3)o1`, the pIC50 is 4.86. The figure for `CCOC(=O)C1=C(Cc2ccc(Cl)cc2)C(=O)c2ccccc2C1=O` is 4.46; for `O=C(NCC1CCCO1)c1cc(-c2ccco2)nc2ccccc12` (stereo unspecified) it is 4.84; for `CCC(C)C(NC(=O)[C@@H](NC(=O)c1ccccc1F)C(C)C)C(=O)OC` (stereo partly specified) it is 5.23. The figure for `C=C(C)C(=O)Nc1cccc(C2=NOC3(C2)C[C@H](C(N)=O)N(C(=O)C(c2ccccc2)c2ccccc2)C3)c1` (stereo partly specified) is 5.62. The figure for `O=[N+]([O-])c1ccc(-c2ccc(/C=N/c3c(-c4ccco4)nc4ccccn34)o2)cc1` is 6.59; for `CCc1cc(=O)oc2cc(C)c(CN3CCCC3)c(O)c12` it is 5.39. Take `c1ccc2c3c([nH]c2c1)CNCC3`: the pIC50 is 4.07.

With `O=C(O)Cc1ccc(N=Nc2c(O)c(C(=O)O)cc3ccccc23)cc1`, the pIC50 is 4.98. For the molecule `O=C(NCCN1CCN(c2ccccc2)CC1)C1CCN(S(=O)(=O)c2cccc3nonc23)CC1`, the pIC50 is 4.37. For the molecule `CC(=O)Nc1cc(NC(C)=O)cc(C(=O)N2CCCC3CCCCC32)c1` (stereo unspecified), the pIC50 is 5.02. With `O=[N+]([O-])c1cc(Br)c(O)c(C=Nc2ccc(N3CCOCC3)cc2)c1` the figure was 5.14. The figure for `CCc1cc(C=NC2CCCCC2)c(O)s1` is 4.11; for `O=c1[nH][nH]c2c(N=Cc3ccccc3O)ccc(F)c12` it is 6.06. The figure for `CN1CCc2c(sc3c2c(NCc2ccco2)nc2nnnn23)C1` is 4.79; for `Cc1cnc(NC(=O)CSc2nnc(CNc3ccc(F)cc3)n2CC2CCCO2)s1` (stereo unspecified) it is 4.28; for `Cc1ccc(S(=O)(=O)Cn2nnnc2C(CC(C)C)N2CCN(C)CC2)cc1` (stereo unspecified) it is 5.01. Turning to `COc1ccc2c(c1)O[C@@H](c1ccc3c(c1)OCO3)[C@H](OC(=O)Nc1cc(OC)c(OC)c(OC)c1)C2=O`, the pIC50 is 4.18. With `COc1ccc(-c2cc(-c3ccco3)[nH]c(=O)c2C#N)cc1` the figure was 4.60. With `Cn1cccc1C(=O)NC(=O)COC(=O)CC12CC3CC(CC(Br)(C3)C1)C2` the figure was 4.23; with `Cc1cc(C(=O)COC(=O)c2cc(O)c3ccccc3c2O)c(C)n1CC1CCCO1` (stereo unspecified), 5.16; with `COc1ccccc1-n1c(SCC(=O)NCc2ccc3c(c2)OCO3)nc2cc([N+](=O)[O-])ccc21`, 4.64.

On to `Cc1cc(C(=O)CN2C(=O)c3ccccc3S2(=O)=O)c(C)n1CC1CCCO1` (stereo unspecified), for which the pIC50 was 4.29.

With `CN(C)c1ccc(N/C=C/C(=O)c2ccco2)cc1`, the negative-log IC50 (pIC50) is 4.51.

For the molecule `O=C(CN1CCN(S(=O)(=O)c2ccc(F)cc2)CC1)c1ccc(O)c(O)c1`, the pIC50 is 4.70. With `O=C(C1CCCN1S(=O)(=O)c1cccc2cccnc12)N1CCN(c2ccccc2)CC1` (stereo unspecified) the figure was 4.40.

Take `COC(=O)C(C)Sc1nnc(Cc2cc(=O)[nH]c(=O)[nH]2)n1-c1cc(C)ccc1C` (stereo unspecified): the pIC50 is 4.02. On to `COc1cccc(N2C(=O)NC(=O)/C(=C/c3ccc([N+](=O)[O-])s3)C2=O)c1`, for which the pIC50 was 5.14.

As for `CCC1=NN2C(=N)/C(=C\c3cccn3-c3cccc(Cl)c3)C(=O)N=C2S1`, the pIC50 was 4.02. The figure for `O=C(OCC(=O)N1CCN(C(=O)c2ccco2)CC1)c1cc(-c2ccco2)nc2ccccc12` is 5.40. For the molecule `O=C(O)CC(C(=O)O)N1C(=O)/C(=C/C=C/c2ccco2)SC1=S` (stereo unspecified), the negative logarithm of the IC50 (pIC50) is 6.02. With `CN1c2ccsc2C(O)=C(C(=S)Nc2ccc(F)c(Cl)c2)S1(=O)=O` the figure was 5.95; with `O=C(N/N=C/C=C/c1ccco1)c1cccs1`, 5.15; with `COC(=O)c1ccccc1NC(=O)c1noc2c1CCC2`, 4.58. With `N#C/C(C(N)=O)=c1/ccc2c(c1)N1C3=C(CCCC3)CC3CCCCC31N=2` (stereo unspecified) the figure was 4.55. The figure for `C=C(C)C(=O)Nc1cccc(C2=NOC3(C2)C[C@@H](C(N)=O)N(C(=O)CC(c2ccccc2)c2ccccc2)C3)c1` (stereo partly specified) is 5.51.
